Results published in patent US4097582A, “6',2-(2'-Arylchromonyl) propionic acids, and analgesic and anti-inflammatory derivatives thereof” (Lipha, Lyonnaise Industrielle Pharmaceutique, priority 1974, dated 1978).
Structures can show the parent of a compound that is named as a salt. Where two headings read alike, the source gives them in different places.

How the values were obtained:
[1] = tested on: carrageenin-induced oedema; assay: carrageenin-induced oedema test upon rats, anti-inflammatory effect (Winter et al.); type: in vivo; details: Rattus norvegicus, phenylbutazone control, read-out: Carrageenin (A.D. 30, mg/kg)
Protocol: (§1) The pharmacological, analgesic and anti-inflammatory effectiveness and the slightly ulcerating effect of the propionic acids and their functional derivatives was determined by various methods. The compounds are identified by the numbers of the examples.
The anti-inflammatory effect of the compounds claimed was established, inter alia, by the carrageenin-induced oedema test upon rats (Winter et al. -- Proc. Soc. Exp. Biol. Med. 1962, Vol. III, pages 544 and 547). The results obtained with certain of the compounds of the invention are given below in Table II (phenylbutazone was used as a control).

[2] = tested on: acetic test upon mice; assay: acetic test upon mice, analgesic effect (Siegmund method as modified by Koster, Anderson and Debeer); type: in vivo; details: Mus musculus
Source text: The compounds are identified by the numbers of the examples.

[3] = tested on: ulcers; assay: aggravation of ulcers already caused in rats (Shay et al.), ulcerating effect; type: in vivo
Protocol: as §1
The compounds were compared with phenylbutazone in order to evaluate their ulcerating effect. The method used was that of aggravating ulcers which has already been caused in rats by the procedure described by Shay et al (Gastroenterology, 1945, Vol. 5, pages 43 to 61).

[4] = observations made during clinical trials; type: in vivo, human (patients: Mrs. / Mr.)
Protocol: Pharmaceutical compositions comprising a compound of the invention as their active ingredient and a physiologically acceptable, solid or liquid pharmaceutical excipient or diluent enable the active ingredient to be administered in daily doses of from 20 to 1000 mg. Among the observations made during clinical trials with the compound of Example 13 the following may be mentioned:
Among the observations made during clinical trials of the compound of Example 22 may be mentioned the following five: […]

[5] = recently discovered; cited from earlier work
[6] = mice, acetic test, aspirin control, read-out: ED50
[7] = A person, cervical pain from arthritic spine, four 100 mg tablets per day, 8 days
[8] = A person, pseudoarthrosis of the knee, five 100 mg tablets per day, 8 days
[9] = A person, stripping of varicose veins, six 100 mg tablets per day, 5 days
[10] = person one, sciatica, four 100 mg tablets per day, 10 days
[11] = person two, post-fracture gonarthrosis, four 100 mg tablets per day, 10 days
[12] = A person, inflammation of arteries in lower limbs, four 150 mg tablets per day, five days
[13] = A person, lumbar arthrosis, six 150 mg tablets per day, 10 days
[14] = A person, removal of left knee-cap, six 150 mg tablets per day, 5 days
[15] = A person, very intense lumbar pain, four 150 mg tablets per day, ten days

In the case of COC(=O)C(C)c1ccc2oc(-c3cccs3)cc(=O)c2c1 (stereo not drawn) [Example 29, Methyl 2-[2'-(α-thienyl)-6'-chromonyl]propionate], the ED30 [1] is reported as 37 mg/kg and the ED50 [2, 6] is reported as 2.3 mg/kg.

In the case of CC(C(=O)O)c1ccc2oc(-c3cccs3)cc(=O)c2c1 (stereo not drawn) [Example 13, 2-[2'-(α-Thienyl)-6'-chromonyl]propionic acid], the ED30 [1] is reported as 10 mg/kg, the ED50 [2, 6] is reported as 1.5 mg/kg and the “Aggravation of ulceration, Coefficient” value ([3]; dose 300 mg/kg body weight/PO) is reported as 50. The analgesic effect [4, 7] was “good”, the “movement in the neck” value [4, 7] was “restored movement to normal amplitude in the neck unaccompanied by pain” and the antiinflammatory effect [4, 8] was “very good”. The “duration of relief of pain” value [4, 8] was “three”, the relief of pain [4, 8] was “good” and the duration of relief [4, 9] was 3 h. For the same molecule, the relief [4, 9] was “complete”, the “time after administration until relief apparent” value [4, 9] was “less than 30 minutes” and the tolerance ([4]; A person, five 100 mg tablets per day, 8 days) was “perfect”. The tolerance ([4]; A person, four 100 mg tablets per day, 8 days) was “very good”, the tolerance ([4]; A person, six 100 mg tablets per day, 5 days) was “very good” and the analgesic effect [4, 10] was “excellent”. For the same molecule, the “improvement in the results of the Lasegue test” value [4, 10] was “from 45 to 75”, the tolerance ([4]; person one, four 100 mg tablets per day, 10 days) was “complete” and the analgesic effect [4, 11] was “very positive”. For the same molecule, the knee flexion improvement [4, 11] was “from 15 to 25”, the “results on the knee” value [4, 11] was “excellent” and the “temperature of the knee” value [4, 11] was “returned to its normal temperature”. For the same molecule, the tolerance ([4]; person two, four 100 mg tablets per day, 10 days) was “good”.

CCCOC(=O)C(C)c1ccc2oc(-c3ccccc3)cc(=O)c2c1 (stereo not shown) [Example 25, Propyl 2-(2'-phenyl-6'-chromonyl)propionate] gave an ED30 [1] of 85 mg/kg and an ED50 [2, 6] of 6 mg/kg.

With CCCCC1C(=O)N(c2ccccc2)N(c2ccccc2)C1=O [Phenylbutazone, reference compound] the ED30 [1] was 50 mg/kg and the “Aggravation of ulceration, Coefficient” value ([3]; dose 200 mg/kg body weight/PO) was 100.

In the case of O=C(O)Cc1ccc2oc(-c3ccccc3)cc(=O)c2c1 [6-(2-Phenylchromonyl) acetic acid], the choleretic activity [5] is listed as “choleretic activity”.

CC(C(=O)OCCN1CCOCC1)c1ccc2oc(-c3cccs3)cc(=O)c2c1 (stereo not drawn) [Example 32, The acid oxalate of β-morpholinoethyl-2-[2'-(α-thienyl)-6'-chromonyl]propionate] showed an ED50 [2, 6] of 4.6 mg/kg.

For CC(C(=O)O)c1ccc2oc(-c3ccccc3)cc(=O)c2c1 (stereo not shown) [Example 22, 2-(6'-Flavonyl)propionic acid], the ED30 [1] was 65 mg/kg, the ED50 [2, 6] was 9 mg/kg and the “Aggravation of ulceration, Coefficient” value ([3]; dose 300 mg/kg body weight/PO) was 60. For the same molecule, the duration of relief [4, 12] was “more than three”, the relief [4, 12] was “very distinct relief” and the “time after administration until relief” value [4, 12] was “less than 30 minutes”. For the same molecule, the duration of relief [4, 13] was “three”, the functional improvement [4, 13] was “appreciable functional improvement” and the “time after administration until relief” value [4, 13] was “thirty”. For the same molecule, the “results against pain and signs of inflammation” value ([4]; A person, pain in neck and arm, four 150 mg tablets per day, eight days) was “very good”, the duration of relief [4, 14] was greater than 3 h and the relief [4, 14] was “complete”. For the same molecule, the “time until relief appears” value [4, 14] was “less than 30 minutes”, the antalgic effect [4, 15] was “excellent” and the “distance which the patient could move their fingertips towards the ground” value [4, 15] was “from 40 to 5”. For the same molecule, the improvement [4, 15] was “very pronounced improvement”, the tolerance ([4]; A person, four 150 mg tablets per day, eight days) was “complete” and the tolerance ([4]; A person, four 150 mg tablets per day, five days) was “satisfactory”. For the same molecule, the tolerance ([4]; A person, four 150 mg tablets per day, ten days) was “complete”, the tolerance ([4]; A person, six 150 mg tablets per day, 5 days) was “good” and the tolerance ([4]; A person, six 150 mg tablets per day, 10 days) was “complete”.

Molecule CC(=O)Oc1ccccc1C(=O)O [Aspirin, reference compound] has an ED50 [2] of 130 mg/kg.
